For assay [1], the system named is TNF-alpha. The experiment in a line: TNF-alpha Quantification Assay (ELISA), LPS-stimulated RAW 264.7. In kind it is cell-based. As to conditions: Mus musculus, RAW264.7; at 10 μM; read-out: TNFα: % inh. On the technique in general: ELISA stands for enzyme-linked immunosorbent assay.
Assay [2] relates to Erk1/2 phosphorylation. Kind of assay: Erk1/2 Phosphorylation Assay (western blot), Panc-1. In kind it is cell-based, human. Conditions: at 10 μM, * = activation. In outline:
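Phospho-Erk1/2 (Thr202/Tyr204) was detected by western blot in lysates of Panc-1 cells (KRas G12D). These had 6 h, 37° C exposure to 10 μM compound or a dilution series for IC50, in 0.3% DMSO. Cells were either starved overnight in 0.5% FBS with a 15-min 1.5 ng/ml EGF pulse, or kept unstimulated in 10% FBS.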
A general note: Immunoblotting shows a protein as a band on a membrane.

Assay [3] concerns Akt phosphorylation. Kind of assay: Akt Phosphorylation Assay (western blot), Panc-1. It is filed as cell-based, human. Conditions: at 10 μM, * = activation. The essentials:
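Phospho-Akt (Ser473) was measured by western blot in lysates of KRas G12D Panc-1 cells exposed to test compound for 6 h at 37 °C, either at 10 μM final with 0.3% DMSO or as serial dilutions for IC50. One format used overnight 0.5% FBS starvation followed by a 15 min pulse of 1.5 ng/ml EGF. The other used cells in 10% FBS with no stimulation.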

As to `COC[C@@H]1CC[C@@H]1CNc1nc(-c2ccccn2)nn2cc(-c3ccn(C(C)C)n3)c(-c3ccccc3)c12` (racemic) [Compound 26, rac 6-(1-Isopropyl-1H-pyrazol-3-yl)-N-(((1S,2R)-2-(methoxymethyl)cyclobutyl)methyl)-5-phenyl-2-(pyridin-2-yl)pyrrolo[2,1-f][1,2,4]triazin-4-amine], the inhibition at 10 µM in assay [1] is 1 to 24%. For the same compound, the “% inh of Erk1/2 phosphorylation in Panc-1” value in assay [2] is recorded as “D (85-100% inhibition)”. Also, the “% inh of Akt phosphorylation in Panc-1” value in assay [3] is listed as “C (50-84% inhibition)”.

As for `Cc1c(-c2ccn(C)n2)cn2nc(-c3nccn3C)nc(Nc3ccc(-c4ccccn4)cn3)c12` [Compound 249, N-([2,3′-Bipyridin]-6′-yl)-5-methyl-2-(1-methyl-1H-imidazol-2-yl)-6-(1-methyl-1H-pyrazol-3-yl)pyrrolo[2,1-f][1,2,4]triazin-4-amine], in assay [1], the inhibition at 10 µM was in the range of 1 to 24%. The “% inh of Erk1/2 phosphorylation in Panc-1” value in assay [2] is “D* (85-100% activation)”. Besides, the “% inh of Akt phosphorylation in Panc-1” value in assay [3] is “D* (85-100% activation)”.

On to `Cc1[nH]nc(Nc2nc(-c3nccn3C)nn3cc(-c4ccn(C)n4)c(C)c23)c1C` [Compound 267, N-(4,5-Dimethyl-1H-pyrazol-3-yl)-5-methyl-2-(1-methyl-1H-imidazol-2-yl)-6-(1-methyl-1H-pyrazol-3-yl)pyrrolo[2,1-f][1,2,4]triazin-4-amine], for which the inhibition at 10 µM in assay [1] is 1 to 24%. Moreover, the “% inh of Erk1/2 phosphorylation in Panc-1” value in assay [2] is “D* (85-100% activation)”. Besides, in assay [3], the “% inh of Akt phosphorylation in Panc-1” value is listed as “D* (85-100% activation)”.

Consider `Cc1c(-c2ccn(C(C)C)n2)cn2nc(-c3nccn3C)nc(Nc3nnc(C4CC4)o3)c12` [Compound 67, 5-Cyclopropyl-N-(6-(1-isopropyl-1H-pyrazol-3-yl)-5-methyl-2-(1-methyl-1H-imidazol-2-yl)pyrrolo[2,1-f][1,2,4]triazin-4-yl)-1,3,4-oxadiazol-2-amine], for which, in assay [1], the inhibition at 10 µM is 50 to 74%. For the same compound, the “% inh of Erk1/2 phosphorylation in Panc-1” value in assay [2] is listed as “D (85-100% inhibition)”. In addition, in assay [3], the “% inh of Akt phosphorylation in Panc-1” value was “D* (85-100% activation)”.

For the compound `Cc1c(-c2ccn(C)n2)cn2nc(-c3nccn3C)nc(Oc3cc(N)[nH]n3)c12` [Compound 262, 3-((5-Methyl-2-(1-methyl-1H-imidazol-2-yl)-6-(1-methyl-1H-pyrazol-3-yl)pyrrolo[2,1-f][1,2,4]triazin-4-yl)oxy)-1H-pyrazol-5-amine], in assay [1], the inhibition at 10 µM was determined as 0%. The “% inh of Erk1/2 phosphorylation in Panc-1” value in assay [2] is “A (1-25% inhibition)”. Further, in assay [3], the “% inh of Akt phosphorylation in Panc-1” value is reported as “B (26-49% inhibition)”.

In the case of `Cc1c(-c2ccn(C(C)C)n2)cn2nc(-c3nccn3C)nc(Nc3ccncc3)c12` [Compound 52, 6-(1-Isopropyl-1H-pyrazol-3-yl)-5-methyl-2-(1-methyl-1H-imidazol-2-yl)-N-(pyridin-4-yl)pyrrolo[2,1-f][1,2,4]triazin-4-amine], in assay [1], the inhibition at 10 µM was in the range of 1 to 24%. For the same compound, the “% inh of Erk1/2 phosphorylation in Panc-1” value in assay [2] is 0 (0% inhibition). Further, in assay [3], the “% inh of Akt phosphorylation in Panc-1” value was “B (26-49% inhibition)”.

Regarding `COc1cncnc1Nc1nc(-c2nccn2C)nn2cc(-c3ccn(C(C)C)n3)c(C)c12` [Compound 73, 6-(1-Isopropyl-1H-pyrazol-3-yl)-N-(5-methoxypyrimidin-4-yl)-5-methyl-2-(1-methyl-1H-imidazol-2-yl)pyrrolo[2,1-f][1,2,4]triazin-4-amine], the inhibition at 10 µM in assay [1] was determined as 0%. In assay [2], the “% inh of Erk1/2 phosphorylation in Panc-1” value is “D* (85-100% activation)”. For the same compound, in assay [3], the “% inh of Akt phosphorylation in Panc-1” value is on record as “D* (85-100% activation)”.

On to `Cc1c(-c2ccn(C)n2)cn2nc(-c3nccn3C)nc(Nc3cc(C4CCC4)[nH]n3)c12` [Compound 257, N-(5-Cyclobutyl-1H-pyrazol-3-yl)-5-methyl-2-(1-methyl-1H-imidazol-2-yl)-6-(1-methyl-1H-pyrazol-3-yl)pyrrolo[2,1-f][1,2,4]triazin-4-amine], for which the inhibition at 10 µM in assay [1] lay in the range of 25 to 49%. Also, the “% inh of Erk1/2 phosphorylation in Panc-1” value in assay [2] is on record as “C* (46-84% activation)”. Further, in assay [3], the “% inh of Akt phosphorylation in Panc-1” value is “D* (85-100% activation)”.

The record behind these values is US12459951B2, “Compounds that interact with RAS superfamily proteins for treatment of cancers, inflammatory diseases, rasopathies, and fibrotic disease” (SHY Therapeutics, LLC, priority 2022, dated 2025).
